Results on one compound are retold here after article PMC3901029 (Biochemical and biophysical research communications, 2013).

The target in the assay is MJ (MJ0796-G174W-G14C, single-Cys mutant based on Cys-less MJ0796; isolated nucleotide-binding domain) (Methanocaldococcus jannaschii, UniProt Q58206, C128I/C53G/G14C/G174W/K44A). Description: Trp174 fluorescence quenching.

The Kd is the constant that tells how readily two partners part at equilibrium.

MJ (MJ0796-G174W-G14C, single-Cys mutant based on Cys-less MJ0796; isolated nucleotide-binding domain), sequence (Q58206 whole entry G14C/K44A/C53G/C128I/G174W, the tested form may be a part): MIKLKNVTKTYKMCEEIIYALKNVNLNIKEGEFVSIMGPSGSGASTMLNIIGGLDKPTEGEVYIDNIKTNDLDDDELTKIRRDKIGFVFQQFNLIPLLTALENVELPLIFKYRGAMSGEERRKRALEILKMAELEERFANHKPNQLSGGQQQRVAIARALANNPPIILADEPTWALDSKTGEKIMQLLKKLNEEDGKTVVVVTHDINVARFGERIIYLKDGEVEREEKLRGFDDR

`Nc1ncnc2c1ncn2[C@@H]1O[C@H](COP(=O)(O)OP(=O)(O)OP(=O)(O)O)[C@@H](O)[C@H]1O` [ATP] gave a Kd of 70 ± 13 µM.
